Results published in patent publication US10457710B2, “Antimicrobial peptides, their variants and uses” (priority 2015, dated 2019).
Where a SMILES comes first, the peptide text is derived from it. [ ]: non-standard residue; d: D form.

Experiments:
MRSA strains = experiment: MIC, synergistic activity with Ertapenem (4 μg/ml); format: cell-based, S. aureus; settings: S. aureus COL with 4 μg/ml Ertapenem (synergistic activity)
Experimental: (§1) Peptides Chain 104, Chain 105, Chain 201, Chain 308, Chain 310 were tested against antibiotic-sensitive strains of S. aureus RN4220 and methicillin resistant strains of S. aureus COL (MRSA). Chain peptides comprising of either L- or D-form amino acids were tested against these bacteria, and the D-form peptides were found have better activity compared to L-form (Table 6). Synergistic activity of chain peptides along with Ertapenem (4 μg/ml) was tested to know whether it will influence the activity against MRSA strains. […] Chain 310 has the best antibacterial activity against the MRSA strains with a MIC of 0.06 & 0.03 μg/ml along with Ertapenem (4 μg/ml) for both forms of L and D-peptides (Table 6).

S. aureus RN4220 = format: cell-based; settings: antibiotic sensitive strain S. aureus RN4220
Experimental: (§2) Minimum inhibition concetrations (MICs) were determined against Escherichia coli (ATCC 25922), Staphylococcus aureus (ATCC 25923), Klebsiella pneumoniae (ATCC 10031) and Pseudomonas aeruginosa (ATCC 27853). Also clinical strains of E. coli, K. pneumoniae, E. cloacae, P. aeruginosa, Serratia marcescens, Proteus mirabilis, S. pneumoniae, Acinetobacter baumannii, A. johnsonii and S. aureus were used for MICs assays. Additionally, clinical strains of yeast including Candida albicans, C. glabrata, C. parapsilosis and C. quillermondiae were used. The susceptibility of these microorganisms to Chain peptides were determined using micro broth dilution assay. Colonies of the respective microorganism from Muller Hinton (MH) agar plates incubated overnight were suspended in MH broth media and final concentration of microorganism was adjusted to 5.0×10^5 cfu/ml. An aliquot of 10 μl of each Chain peptide, or gentamicin, tetracycline as reference antibiotics were added in differing concentrations along with 90 μl of bacterial suspension to 96 well polypropylene plates and incubated at 37° C. for 20 to 24 hours. Concentrations of Chain peptides and reference antibiotics ranged from 0.125 to 128 μg/ml and the MICs were recorded as the lowest concentration with no visual growth of bacteria. Similarly, antifungal MICs were tested in Potato dextrose broth.
as §1

[1] = test system: clinical strains of S. aureus; experiment: MIC, microdilution, clinical strains; format: cell-based; settings: 0.02% BSA, 0.2% acetic acid
Experimental: as §2
(§3) Clinical strains of yeasts including Candida albicans, C. glabrata, C. parapsilosis and C. quillermondiae were also tested with the 12 Chain peptides. The minimum inhibitory concentration (MICs) varied between these peptides and are presented in Tables 4a, 4b, 4c and 5a, 5b, 5c. Peptides Chain 105, 201 and 308 are broad spectrum antimicrobials with MICs between 0.5-32 μg/ml against all the bacteria and yeasts tested, except Serratia marcescens and Proteus mirabilis, against which the MICs were between 64-128 μg/ml. Peptide Chain 306 has narrow spectrum activity against E. coli at 1 μg/ml and for the rest of the bacterial strains at >32 μg/ml (FIG. 10c).

[2] = test system: clinical strains of K. pneumoniae; experiment: MIC, microdilution, clinical strains; format: cell-based; settings: 0.02% BSA, 0.2% acetic acid
Experimental: as §2, §3

[3] = test system: clinical strains of P. aeruginosa; experiment: MIC, microdilution, clinical strains; format: cell-based; settings: 0.02% BSA, 0.2% acetic acid
Experimental: as §2, §3

[4] = test system: clinical strains of E. coli; experiment: MIC, microdilution, clinical strains; format: cell-based; settings: microdilution, Muller Hinton broth-cation adjusted, 0.02% BSA, 0.2% acetic acid
Experimental: as §2, §3

[5] = test system: clinical strains of S. pneumoniae; experiment: MIC, microdilution, clinical strains; format: cell-based; settings: 0.02% BSA, 0.2% acetic acid
Experimental: as §2, §3

[6] = test system: clinical strains of Serratia marcescens; experiment: MIC, microdilution, clinical strains; format: cell-based; settings: 0.02% BSA, 0.2% acetic acid
Experimental: as §2, §3

[7] = test system: clinical strains of E. cloacae; experiment: MIC, microdilution, clinical strains; format: cell-based; settings: 0.02% BSA, 0.2% acetic acid
Experimental: as §2, §3

[8] = test system: clinical strains of Proteus mirabilis; experiment: MIC, microdilution, clinical strains; format: cell-based; settings: 0.02% BSA, 0.2% acetic acid
Experimental: as §2, §3

C. parapsilosis = experiment: MIC, clinical yeast strains; format: cell-based
Experimental: as §2, §3

Candida albicans = experiment: MIC, clinical yeast strains; format: cell-based
Experimental: as §2, §3

C. glabrata = experiment: MIC, clinical yeast strains; format: cell-based
Experimental: as §2, §3

C. quillermondiae = experiment: MIC, clinical yeast strains; format: cell-based; design: Minimum inhibitory concentration: unit: μg/ml; settings: C. quillermondiae clinical yeast strain 1
Experimental: as §2, §3

Compound: CC[C@@H](C)[C@@H](NC(=O)[C@@H](CCSC)NC(=O)[C@@H](C)NC(=O)[C@@H](CCCNC(=N)N)NC(=O)[C@@H](Cc1c[nH]c2ccccc12)NC(=O)[C@@H](CCCCN)NC(=O)[C@H](N)CCCNC(=N)N)C(=O)N[C@H](CCCNC(=N)N)C(=O)N[C@H](CC(C)C)C(=O)N[C@H](Cc1c[nH]cn1)C(=O)N[C@H](C)C(=O)N[C@H](CCCCN)C(=O)N[C@H](CCCNC(=N)N)C(=O)N[C@H](CC(C)C)C(=O)N[C@H](CCCNC(=N)N)C(=O)N[C@H](CCCCN)C(=O)O [104 D] (H-[dR][dK][dW][dR][dA][dM][dI][dR][dL][dH][dA][dK][dR][dL][dR][dK]-OH)
- Minimum inhibitory concentration (MICs), S. aureus COL + 4 μg/ml Ertapenem (MRSA strains): 4 µg/mL
- Minimum inhibitory concentration (MICs), S. aureus RN4220 (S. aureus RN4220): 64 µg/mL

Compound: CC[C@@H](C)[C@@H](NC(=O)[C@@H](CCSC)NC(=O)[C@@H](C)NC(=O)[C@@H](CCCNC(=N)N)NC(=O)[C@@H](Cc1c[nH]c2ccccc12)NC(=O)[C@@H](CCCCN)NC(=O)[C@H](N)CCCNC(=N)N)C(=O)N[C@H](CCCNC(=N)N)C(=O)N[C@H](CC(C)C)C(=O)N[C@H](Cc1c[nH]cn1)C(=O)N[C@H](C)C(=O)N[C@H](CCCCN)C(=O)N[C@H](Cc1c[nH]c2ccccc12)C(=O)N[C@H](CC(C)C)C(=O)N[C@H](CCCNC(=N)N)C(=O)N[C@H](CCCCN)C(=O)O [105 D] (H-[dR][dK][dW][dR][dA][dM][dI][dR][dL][dH][dA][dK][dW][dL][dR][dK]-OH)
- Minimum inhibitory concentration (MICs), S. aureus COL + 4 μg/ml Ertapenem (MRSA strains): 2 µg/mL
- Minimum inhibitory concentration (MICs), S. aureus RN4220 (S. aureus RN4220): 16 µg/mL

Compound: CC[C@@H](C)[C@@H](NC(=O)[C@@H](Cc1c[nH]c2ccccc12)NC(=O)[C@H](N)CCCCN)C(=O)N[C@@H](C(=O)N[C@H](Cc1c[nH]c2ccccc12)C(=O)N[C@H](CCCNC(=N)N)C(=O)N[C@H](Cc1c[nH]c2ccccc12)C(=O)N[C@H](CCCNC(=N)N)C(=O)N[C@H](Cc1ccccc1)C(=O)N[C@H](CCCCN)C(=O)N[C@H](CCCNC(=N)N)C(=O)O)C(C)C [201 D] (H-[dK][dW][dI][dV][dW][dR][dW][dR][dF][dK][dR]-OH)
- Minimum inhibitory concentration (MICs), S. aureus COL + 4 μg/ml Ertapenem (MRSA strains): 1 µg/mL
- Minimum inhibitory concentration (MICs), S. aureus RN4220 (S. aureus RN4220): 2 µg/mL

Compound: CC(C)C[C@@H](NC(=O)[C@H](N)CCCCN)C(=O)N[C@H](CCCCN)C(=O)N[C@H](Cc1c[nH]c2ccccc12)C(=O)N[C@H](Cc1ccccc1)C(=O)N[C@H](Cc1c[nH]c2ccccc12)C(=O)N[C@H](CC(C)C)C(=O)N[C@H](Cc1ccccc1)C(=O)N[C@H](CCCCN)C(=O)N[C@H](CCCCN)C(=O)N[C@H](CCCNC(=N)N)C(=O)O [Chain311D] (H-[dK][dL][dK][dW][dF][dW][dL][dF][dK][dK][dR]-OH)
- Minimum inhibitory concentration ([1]; Staphylococcus aureus strain 1, Muller Hinton broth-cation adjusted): 1
- Minimum inhibitory concentration ([1]; Staphylococcus aureus strain 2, Muller Hinton broth-cation adjusted): 1
- Minimum inhibitory concentration ([1]; Staphylococcus aureus strain 3, Muller Hinton broth-cation adjusted): 1
- Minimum inhibitory concentration ([1]; Staphylococcus aureus strain 4, Muller Hinton broth-cation adjusted): 1
- Minimum inhibitory concentration ([1]; Staphylococcus aureus strain 5, Muller Hinton broth-cation adjusted): 1
- Minimum inhibitory concentration ([2]; Klebsiella pneumoniae strain 1, Muller Hinton broth-cation adjusted): 8
- Minimum inhibitory concentration ([2]; Klebsiella pneumoniae strain 2, Muller Hinton broth-cation adjusted): 8
- Minimum inhibitory concentration ([2]; Klebsiella pneumoniae strain 3, Muller Hinton broth-cation adjusted): 4
- Minimum inhibitory concentration ([2]; Klebsiella pneumoniae strain 4, Muller Hinton broth-cation adjusted): 8
- Minimum inhibitory concentration ([2]; Klebsiella pneumoniae strain 5, Muller Hinton broth-cation adjusted): 4
- Minimum inhibitory concentration ([3]; Pseudomonas aeruginosa strain 1, Muller Hinton broth-cation adjusted): 16
- Minimum inhibitory concentration ([3]; Pseudomonas aeruginosa strain 2, Muller Hinton broth-cation adjusted): 8
- Minimum inhibitory concentration ([3]; Pseudomonas aeruginosa strain 3, Muller Hinton broth-cation adjusted): 16
- Minimum inhibitory concentration ([3]; Pseudomonas aeruginosa strain 4, Muller Hinton broth-cation adjusted): 8
- Minimum inhibitory concentration ([3]; Pseudomonas aeruginosa strain 5, Muller Hinton broth-cation adjusted): 4
- Minimum inhibitory concentration ([4]; Escherichia coli strain 1): 2
- Minimum inhibitory concentration ([4]; Escherichia coli strain 2): 2
- Minimum inhibitory concentration ([4]; Escherichia coli strain 3): 1
- Minimum inhibitory concentration ([4]; Escherichia coli strain 4): 0.5
- Minimum inhibitory concentration ([4]; Escherichia coli strain 5): 1
- Minimum inhibitory concentration ([5]; Streptococcus pneumoniae strain 1, Muller Hinton broth-cation adjusted): 16
- Minimum inhibitory concentration ([5]; Streptococcus pneumoniae strain 2, Muller Hinton broth-cation adjusted): 8
- Minimum inhibitory concentration ([5]; Streptococcus pneumoniae strain 3, Muller Hinton broth-cation adjusted): 16
- Minimum inhibitory concentration ([5]; Streptococcus pneumoniae strain 4, Muller Hinton broth-cation adjusted): 4
- Minimum inhibitory concentration ([5]; Streptococcus pneumoniae strain 5, Muller Hinton broth-cation adjusted): 8
- Minimum inhibitory concentration ([6]; Serratia marcescens strain 1, Muller Hinton broth-cation adjusted): >128
- Minimum inhibitory concentration ([6]; Serratia marcescens strain 2, Muller Hinton broth-cation adjusted): >128
- Minimum inhibitory concentration ([6]; Serratia marcescens strain 3, Muller Hinton broth-cation adjusted): >128
- Minimum inhibitory concentration ([6]; Serratia marcescens strain 4, Muller Hinton broth-cation adjusted): >128
- Minimum inhibitory concentration ([6]; Serratia marcescens strain 5, Muller Hinton broth-cation adjusted): >128
- Minimum inhibitory concentration ([7]; Enterobacter cloacae strain 1, Muller Hinton broth-cation adjusted): 4
- Minimum inhibitory concentration ([7]; Enterobacter cloacae strain 2, Muller Hinton broth-cation adjusted): 4
- Minimum inhibitory concentration ([7]; Enterobacter cloacae strain 3, Muller Hinton broth-cation adjusted): 4
- Minimum inhibitory concentration ([7]; Enterobacter cloacae strain 4, Muller Hinton broth-cation adjusted): 4
- Minimum inhibitory concentration ([7]; Enterobacter cloacae strain 5, Muller Hinton broth-cation adjusted): 2
- Minimum inhibitory concentration ([8]; Proteus mirabilis strain 1, Muller Hinton broth-cation adjusted): >128
- Minimum inhibitory concentration ([8]; Proteus mirabilis strain 2, Muller Hinton broth-cation adjusted): 128
- Minimum inhibitory concentration ([8]; Proteus mirabilis strain 3, Muller Hinton broth-cation adjusted): 128
- Minimum inhibitory concentration ([8]; Proteus mirabilis strain 4, Muller Hinton broth-cation adjusted): >128
- Minimum inhibitory concentration ([8]; Proteus mirabilis strain 5, Muller Hinton broth-cation adjusted): >128
- Minimum inhibitory concentration (C. parapsilosis; C. parapsilosis clinical yeast strain 1): 16
- Minimum inhibitory concentration (C. parapsilosis; C. parapsilosis clinical yeast strain 2): 8
- Minimum inhibitory concentration (C. parapsilosis; C. parapsilosis clinical yeast strain 3): 8
- Minimum inhibitory concentration (C. parapsilosis; C. parapsilosis clinical yeast strain 4): 8
- Minimum inhibitory concentration (Candida albicans; Candida albicans clinical yeast strain 1): 8
- Minimum inhibitory concentration (Candida albicans; Candida albicans clinical yeast strain 2): 8
- Minimum inhibitory concentration (Candida albicans; Candida albicans clinical yeast strain 3): 8
- Minimum inhibitory concentration (Candida albicans; Candida albicans clinical yeast strain 4): 16
- Minimum inhibitory concentration (Candida albicans; Candida albicans clinical yeast strain 5): 16
- Minimum inhibitory concentration (C. glabrata; C. glabrata clinical yeast strain 1): 16
- Minimum inhibitory concentration (C. glabrata; C. glabrata clinical yeast strain 2): 16
- Minimum inhibitory concentration (C. glabrata; C. glabrata clinical yeast strain 3): 8
- Minimum inhibitory concentration (C. glabrata; C. glabrata clinical yeast strain 4): 64
- Minimum inhibitory concentration (C. quillermondiae): 4
